According to patent US4338451A, “5-Hydroxymethyl oxazolidinones” (Delalande S.A., priority 1977, dated 1982):

Assays:
[1] = tested on: generalized trembling caused by an interperitoneal injection (200 mg/kg) of dl-5-hydroxytryptophane; assay: Test A: potentiation in mice of generalized trembling caused by dl-5-hydroxytryptophane; format: in vivo; details: Mus musculus, po, dl-5-hydroxytryptophane 200 mg/kg intraperitoneal, read-out: Test A ED 50
Protocol: Potentiation in mice of generalized trembling caused by an interperitoneal injection (200 mg/kg) of dl-5-hydroxytryptophane, following the protocol described by C. GOURET and G. RAYNAUD in J. Pharmacol. (Paris), (1974) 5, 231.

[2] = tested on: ptosis observed one hour after an intravenous injection (2 mg/kg) of reserpine; assay: Test B: antagonism of the ptosis caused by reserpine in mice; format: in vivo; details: Mus musculus, po, 1 h, p.o., reserpine 2 mg/kg intravenous, read-out: Test B ED 50
Protocol: Antagonism with respect to the ptosis observed one hour after an intravenous injection (2 mg/kg) of reserpine given to mice, following the protocol described by C.

[3] = tested on: pontogeniculo-occipital points (P.G.O.) caused by an intravenous injection (0.5 mg/kg) of reserpine; assay: Test C: reduction in the density of pontogeniculo-occipital points (P.G.O.) caused by reserpine in cats; format: in vivo; details: Felis catus, ip, reserpine 0.5 mg/kg intravenous, read-out: Test C ED 50
Protocol: Reduction in the density of pontogeniculo-occipital points (P.G.O.) caused by an intravenous injection (0.5 mg/kg) of reserpine given to cats, following the protocol described by A. COSTON and C. GOURET in J. Pharmacol. (Paris) (1976), 7, 409.

[4] = Acute toxicity in mice; details: mouse, in vivo, po, 1000 mg/kg

SMILES	ED50 [1] [mg/kg]	ED50 [2] [mg/kg]	ED50 [3] [mg/kg]	mortality [4] [%]
N#Cc1cccc(COc2ccc(N3CC(CO)OC3=O)cc2)c1 (centres unmarked) [770 222]	2.8	1.2	5.2	0
O=C1OC(CO)CN1c1ccc(OCc2cccc([N+](=O)[O-])c2)cc1 (centres unmarked) [770 234]	1.5	0.7	9	0
